Paper PMC10974272, “Cytotoxic and Antiproliferative Activity of LASSBio-2208 and the Attempts to Determine Its Drug Metabolism and Pharmacokinetics In Vitro Profile” (Pharmaceuticals, 2024)
One block for each molecule: values may come before it.

Legend:
[1] = system: human prostate cancer cell line (PC-3); test: MTT cell viability assay, PC-3; details: Homo sapiens
Description: (§8) After the incubation time, the plate was centrifuged (Universal centrifuge 320R Hettich, Kirchlengern, Germany) at 440× g, 10 min and 4 °C, then 110 µL of supernatant was removed and 10 µL of MTT solution was added and left to incubate for 3.5 h in the oven at 37 °C and 5% CO2. […] The CC50 was calculated using the GraphPad Prism 9.0 program. Each sample was tested in triplicate in three independent experiments (N3) [32, 33].

[2] = system: breast cancer cell line (MCF-7); test: MTT cell viability assay, MCF-7; details: Homo sapiens
Description: as §8

[3] = system: T lymphoblast cell line (MOLT-4); test: MTT cell viability assay, MOLT-4; details: Homo sapiens
Description: as §8

[4] = system: HDAC-6; details: cited from earlier work
[5] = system: HDAC8; details: cited from earlier work
[6] = system: MOLT-4; test: SRB cell viability/antiproliferative assay, MOLT-4; details: Homo sapiens, MOLT-4, 48 h
[7] = PAMPA—BBB; format: in vitro ADME; design: key to Classification BBB: permeable (CNS+); non-permeable (CNS−); details: for Papp: read-out: Pe. Exp. BBB
Description: (§1) To obtain information on the permeability potential of LASSBio-2208 on cell membranes, this derivative was tested using the parallel artificial membrane permeability assay (PAMPA) that is used as an in vitro model of passive diffusion and transcellular permeation. In this model, the permeability across two artificial membranes is measured: brain lipid from pig extract in dodecane (called PAMPA—BBB) and L-α soy phosphatidylcholine in dodecane (called PAMPA—TGI).
(§2) To perform the permeability assay we used a donor plate where the compounds (tests or controls) are diluted in a buffered medium, characterized by the presence of a synthetic membrane of polyvinylidene fluoride (PVDF) impregnated with a lipid solution, forming a barrier through which the compounds migrate through a diffusion process to the lower plate called the receptor.
(§3) The lipid mixture that impregnates the filter has a different constitution for the permeability tests for the blood–brain barrier (brain lipid from pig extract in dodecane) and gastrointestinal tract (L-α soy phosphatidylcholine in dodecane). In the PAMPA—BBB and PAMPA—GIT assays, the optical density values obtained in the reading at each selected wavelength, for each of the compounds were analysed in comparison with the values of several controls. In the case of the BBB, these values were used to elaborate an equation and determine the permeability coefficient (Pe), using a previously elaborated spreadsheet, and, for the PAMPA—GIT, these values were used to determine the absorbed fraction (Fa%), both using the Excel program. The permeability result for PAMPA—GIT classifies the compounds according to the percentage of absorbed fraction (Fa%), as follows: high intestinal permeability (70–100%), medium permeability (30–69%) or low permeability (0–29%), and the samples were diluted from a stock solution of 10 mM. The PAMPA—BBB model classifies the compounds only as follows: permeable (CNS+) or non-permeable (CNS−) and the assays were made from a stock solution of 1 mg for each compound [25, 40, 41, 42].

[8] = PBMC viability assay by MTT; format: cell-based, human; details: MTT 48 h, non-tumour human PBMC
Description: (§4) The SI indicates how selective a compound is for a tumour cell line compared with a non-tumour cell line.
(§5) Human peripheral blood mononuclear cells (PBMCs) were used to determine the selectivity index (SI) and were obtained from healthy volunteers under a protocol approved by the Ethics Committee CAAE: 38257914.7.0000.5259. Immortalized cells were also obtained from the Rio de Janeiro Cell Bank (BCRJ).
(§6) First, 8 mL of blood from each healthy donor (3 people) was collected in a tube with EDTA in a 1:20 ratio to prevent the blood from clotting. In a 15 mL Falcon tube containing 4 mL of Ficoll-Paque, the 8 mL of blood collected was slowly added, letting it fall down the walls of the tube. It was centrifuged (Universal Centrifuge 320R Hettich) for 40 min at 750× g at 21 °C with acceleration 1 and brake 0. After centrifugation, in order to extract the ring of mononuclear cells, the supernatant above it was first carefully discarded so as not to disturb the ring. The ring was then slowly removed and placed in another 15 mL Falcon tube to which pure RPMI-1640 medium was added in a 1:1 ratio and centrifuged for 10 min at 580× g and 21 °C with acceleration 8 and brake 9 [34, 35].
(§7) The supernatant was discarded, and the pellet was resuspended in 1 mL of RPMI-1640 medium supplemented with 10% SBF and 1% antibiotic. An amount of 20 µL of cells were taken from the mixture and added to 380 µL of trypan blue dye for counting in the Neubauer chamber. Considering that 80% of PBMCs are lymphocytes and the rest are monocytes, the cells were plated with the aim of having 10^5 cell/well.

[9] = system: human peripheral blood mononuclear cells (hPBMC); test: PBMC viability assay by MTT; format: cell-based; details: MTT 48 h; for Emax: human PBMC, maximum cytotoxic response at 100 µM; for CC50: non-tumour human PBMC
Description: as §4, §5, §6, §7

[10] = PAMPA—GIT; format: in vitro ADME; details: for Papp: PAMPA, read-out: Pe. Exp. GIT
Description: as §1, §2, §3

[11] = system: human leukaemia cell line (CCRF-CEM); test: MTT cell viability assay, CCRF-CEM
Description: as §8

[12] = Plasma stability; format: in vitro ADME, rat; details: for recovery at 10 μM / half-life at 10 μM: rat plasma diluted with phosphate buffer, pH 7.4; for recovery at 10 μM: rat plasma stability assay; for metabolic stability in rat plasma (in words) / half-life at 10 μM / Elimination Rate Constant (k) / Metabolization Rate: rat plasma; for half-life at 10 μM / Elimination Rate Constant (k) / Metabolization Rate: 37 °C, 10 μM; for Metabolization Rate: 0–240 min
Description: Considering that both LASSBio-2208 and LASSBio-1911 have, in their structures, the N-acylhydrazone and hydroxamic acid fragments, both susceptible to metabolic hydrolysis, metabolic stability in plasma was conducted with both compounds.
LASSBio-2208 and LASSBio-1911, in a final concentration of 10 μM from stock solution of 1 mM, was added in 50 μL of rat plasma solution diluted in 250 μL with phosphate buffer (pH 7.4) and was placed in a shaker at 37 °C under vigorous stirring for 0, 30, 60, 120 and 240 min. After each reaction time, 1 mL of cold acetonitrile containing 2 uM internal standard was added to the wells to stop the reaction. The solution was mixed and centrifuged at 24,500× g for 15 min (Universal Centrifuge 320R Hettich). The supernatant (1 mL) was filtrated and placed in vials to be analysed by HPLC.

Classification BBB [7]: CNS−
Papp [7]: 0.29 ×10⁻⁶ cm/s
Fraction Absorbed [10]: 20.15%
Pe. Exp. GIT [10]: 0.592 10^−6 cm/s
Papp [10]: 0.359 ×10⁻⁶ cm/s
metabolic stability in rat plasma (in words) [12]: high metabolic stability
recovery at 10 μM [12]: 73.4%
half-life at 10 μM [12]: 6.42 h
Elimination Rate Constant (k) [12]: 0.0018
Metabolization Rate [12]: 36.14%
Structure (SMILES): CN(C)c1ccc(C(=O)N/N=C/c2ccc(C(=O)NO)cc2)cc1 [LASSBio-1911]
CC50 ([1]; 24 h): > 100 µM
Emax ([1]; 24 h): 26.4%
CC50 ([1]; 48 h): > 100 µM
Emax ([1]; 48 h): 42.6%
CC50 ([1]; 72 h): 77.1 µM
Emax ([1]; 72 h): 59.2%
CC50 ([2]; MCF7, 24 h): > 100 µM
Emax ([2]; MCF7, 24 h): 21.6%
CC50 ([2]; MCF7, 48 h): 42.6 µM
Emax ([2]; MCF7, 48 h): 65.4%
CC50 ([2]; MCF7, 72 h): 38.4 µM
Emax ([2]; MCF7, 72 h): 75.4%
CC50 ([3]; MOLT-4, 24 h): 13.8 µM
Emax ([3]; MOLT-4, 24 h): 96.5%
CC50 ([3]; MOLT-4, 48 h): 6.15 µM
Emax ([3]; MOLT-4, 48 h): 98.9%
CC50 ([3]; MOLT-4, 72 h): 5.27 µM
Emax ([3]; MOLT-4, 72 h): 99.2%
IC50 [4]: 0.015 µM
IC50 [5]: 0.23 µM
CC50 [6]: 53.1 µM
Emax [6]: 61%
CC50 at 48 h [8]: > 100 µM
Emax [9]: 31.1%
CC50 [9]: no cytotoxic effect
CC50 ([11]; 24 h): 9.69 µM
Emax ([11]; 24 h): 98%
CC50 ([11]; 48 h): 6.98 µM
Emax ([11]; 48 h): 98.8%
CC50 ([11]; 72 h): 6.92 µM
Emax ([11]; 72 h): 97.1%

Structure (SMILES): O=C(NO)c1ccc(/C=N/NC(=O)c2cc(N3CCOCC3)nc(-c3cccc(O)c3)n2)cc1 [LASSBio-2208]
CC50 ([1]; 24 h): > 100 µM
Emax ([1]; 24 h): 18.4%
CC50 ([1]; 48 h): > 100 µM
Emax ([1]; 48 h): 39.3%
CC50 ([1]; 72 h): > 100 µM
Emax ([1]; 72 h): 42.1%
CC50 ([2]; MCF7, 24 h): > 100 µM
Emax ([2]; MCF7, 24 h): 29.5%
CC50 ([2]; MCF7, 48 h): 31.7 µM
Emax ([2]; MCF7, 48 h): 57.3%
CC50 ([2]; MCF7, 72 h): 23 µM
Emax ([2]; MCF7, 72 h): 60.7%
CC50 ([3]; MOLT-4, 24 h): 7.14 µM
Emax ([3]; MOLT-4, 24 h): 84.1%
CC50 ([3]; MOLT-4, 48 h): 8.26 µM
Emax ([3]; MOLT-4, 48 h): 83.2%
CC50 ([3]; MOLT-4, 72 h): 7.15 µM
Emax ([3]; MOLT-4, 72 h): 91.2%
IC50 [4]: 0.0153 µM
IC50 [5]: 0.0676 µM
CC50 [6]: > 100 µM
Classification BBB [7]: CNS−
Pe. Exp. BBB [7]: low permeation
Papp [7]: 0.69 ×10⁻⁶ cm/s
CC50 at 48 h [8]: > 100 µM
Emax [9]: 29.9%
CC50 [9]: no cytotoxic effect
Fraction Absorbed [10]: 13.78%
Papp [10]: 0.39 ×10⁻⁶ cm/s
CC50 ([11]; 24 h): 27.8 µM
Emax ([11]; 24 h): 69.4%
CC50 ([11]; 48 h): 8.68 µM
Emax ([11]; 48 h): 91.7%
CC50 ([11]; 72 h): 8.54 µM
Emax ([11]; 72 h): 90.4%
metabolic stability in rat plasma (in words) [12]: high metabolic stability
recovery at 10 μM [12]: 75.5%
half-life at 10 μM [12]: 14.4 h
Elimination Rate Constant (k) [12]: 0.0008
Metabolization Rate [12]: 20.61%
